This passage reports IC50 and Kd results from paper PMC12959348 (Angewandte Chemie (International ed. in English), 2025).

The target of one assay is T1, cereblon (CRBN) (Homo sapiens, UniProt Q96SW2).
T1 construct: Eu3+-cryptate-labeled CRBN
The experiment in a line: TR-FRET displacement of thalidomide-red from Eu3+-cryptate-labeled CRBN. Format: binding. An excerpt: TR-FRET displacement of thalidomide-red from Eu3+-cryptate-labeled CRBN on cereblon (CRBN) | displacement of thalidomide-red and binding of 1a and 2a to CRBN.

Assay [1] deals with NRAS (RNA, G4) UGUGGGAGGGGCGGGUCUGGGUGC
The experiment in a line: fluorescence polarization (intrinsic pomalidomide fluorescence). Conditions: 100 mM KCl; 10 mM Li-cacodylate, pH 7.4; ligand 0.2 µM; fit assumes two sites per G4; per site. Background: In fluorescence polarisation assays a small probe gives low polarisation when free and higher when bound to something large.

Assay [2] deals with VEGFR (DNA, G4) GGGTACCCGGGTGAGGTGCGGGGT
Described as above. Conditions: 100 mM KCl; 10 mM Li-cacodylate, pH 7.4; ligand 0.2 µM; fit assumes two sites per G4; per site.

The subject of assay [3] is dsDNA (DNA, hairpin) TATAGCTATATTTTTTTATAGCTATA
Described as above. Conditions: 100 mM KCl; 10 mM Li-cacodylate, pH 7.4; ligand 0.2 µM; per site.

Assay [4] relates to 19wt (DNA, G4) GGGGGAGGGGTACAGGGGTACAGGGG
The assay is described as above. Conditions: 100 mM KCl; 10 mM Li-cacodylate, pH 7.4; ligand 0.2 µM; fit assumes two sites per G4; per site.

The subject of assay [5] is TERRA (RNA, G4) UAAGGGUAAGGGUAAGGGUAAGGG
The description is as above. The following applies: 100 mM KCl; 10 mM Li-cacodylate, pH 7.4; ligand 0.2 µM; fit assumes two sites per G4; per site.

Assay [6] relates to KRAS (DNA, G4) AGGGCGGTGTGGGAATAGGGAA
Described as above. The following applies: 100 mM KCl; 10 mM Li-cacodylate, pH 7.4; ligand 0.2 µM; fit assumes two sites per G4; per site.

Assay [7] deals with ssDNA (DNA, single strand) CCCTAACCCTAACCCTAACCCTAA
The assay is described as above. The following applies: 100 mM KCl; 10 mM Li-cacodylate, pH 7.4; ligand 0.2 µM; per site.

In assay [8] the test system is telo24 (DNA, G4) TTAGGGTTAGGGTTAGGGTTAGGG
The assay is described as above. Conditions: 100 mM KCl; 10 mM Li-cacodylate, pH 7.4; ligand 0.2 µM; fit assumes two sites per G4; per site.

Assay [9] deals with bcl2 (DNA, G4) GGGCGCGGGAGGAATTGGGCGGG
The assay is described as above. The following applies: 100 mM KCl; 10 mM Li-cacodylate, pH 7.4; ligand 0.2 µM; fit assumes two sites per G4; per site.

Assay [10] deals with c-kit1 (DNA, G4) AGGGAGGGCGCTGGGAGGAGGG
Described as above. Conditions: 100 mM KCl; 10 mM Li-cacodylate, pH 7.4; ligand 0.2 µM; fit assumes two sites per G4; per site.

Assay [11] concerns VEGF (DNA, G4) CGGGGCGGGCCTTGGGCGGGGT
The assay is described as above. The following applies: 100 mM KCl; 10 mM Li-cacodylate, pH 7.4; ligand 0.2 µM; fit assumes two sites per G4; per site.

Assay [12] concerns PARP1 (DNA, G4) TGGGGTCCGAGGCGGGGCTTGGG
The description is as above. The following applies: 100 mM KCl; 10 mM Li-cacodylate, pH 7.4; ligand 0.2 µM; fit assumes two sites per G4; per site.

Assay [13] has as its system TERRA (RNA, G4) UAAGGGUAAGGGUAAGGGUAAGGG
The experiment in a line: fluorescence polarization (pomalidomide fluorescence). Conditions: 100 mM K+ (KCl), 10 mM Li-cacodylate, pH 7.4, ligand 0.2 µM, per binding site (two sites per G4).

In assay [14] the test system is bcl2 (DNA, G4) GGGCGCGGGAGGAATTGGGCGGG
The description is as above. The following applies: 100 mM K+ (KCl), 10 mM Li-cacodylate, pH 7.4, ligand 0.2 µM, per binding site (two sites per G4).

T1 sequence (Q96SW2 whole entry): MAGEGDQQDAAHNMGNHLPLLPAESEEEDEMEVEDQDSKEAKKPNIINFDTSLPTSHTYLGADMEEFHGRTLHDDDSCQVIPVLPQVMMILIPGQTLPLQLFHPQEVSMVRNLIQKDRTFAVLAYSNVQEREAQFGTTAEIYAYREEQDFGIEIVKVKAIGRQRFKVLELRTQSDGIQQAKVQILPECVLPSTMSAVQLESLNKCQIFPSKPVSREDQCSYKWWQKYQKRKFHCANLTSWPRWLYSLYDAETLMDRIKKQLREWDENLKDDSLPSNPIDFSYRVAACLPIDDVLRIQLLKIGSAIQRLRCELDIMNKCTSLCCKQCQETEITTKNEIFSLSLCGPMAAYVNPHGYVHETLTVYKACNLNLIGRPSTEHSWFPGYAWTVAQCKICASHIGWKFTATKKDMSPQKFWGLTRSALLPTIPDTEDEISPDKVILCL

The IC50 is the concentration that inhibits the measured activity by half. The low end stands for greater potency, the high end for weaker potency. A word on the Kd: it is the free concentration of one partner at which half of the binding sites on the other are occupied at equilibrium, for simple one-to-one binding. `Cc1oc2nc1-c1nc(c(CCCNC(=O)CNc3cccc4c3C(=O)N(C3CCC(=O)NC3=O)C4=O)o1)-c1nc(co1)C(=O)N[C@@H](CCCCN)c1nc(co1)-c1nc(co1)-c1nc(co1)C(=O)N[C@H]2CCCCN` (some centres unmarked) [1a] came in with an IC50 on cereblon (CRBN) of 61 nM. The dissociation constant (Kd) in assay [1] was 65 ± 2 nM; in assay [2] it was 27 ± 5 nM; in assay [3] it was more than 1200 nM; in assay [4], 103 ± 27 nM; in [5] it was 72 ± 39 nM; in assay [6], 45 ± 35 nM. The Kd in [7] was more than 1200 nM; in [8], 108 ± 75 nM; in assay [9] it was 30 ± 13 nM; in assay [10], 39 ± 23 nM; in [11], 42 ± 38 nM; in assay [12], 42 ± 40 nM.
`Cc1oc2nc1-c1nc(c(CCCNC(=O)CCOCCOCCOCCOCCNc3cccc4c3C(=O)N(C3CCC(=O)NC3=O)C4=O)o1)-c1nc(co1)C(=O)N[C@@H](CCCCN)c1nc(co1)-c1nc(co1)-c1nc(co1)C(=O)N[C@H]2CCCCN` (some centres unmarked) [2a] registered an IC50 at cereblon (CRBN) of 90 nM. The Kd in assay [1] is given as 68 ± 56 nM; in assay [2] it was 802 ± 325 nM; in [3] it was more than 1200 nM; in [4], 3402 ± 436 nM; in assay [5] it was 5 ± 4 nM; in [6], 103 ± 45 nM. Besides, the Kd in assay [7] is on record as more than 1200 nM; in assay [8] it was 356 ± 210 nM; in [9] it was 266 ± 178 nM; in [10], 178 ± 22 nM; in assay [11], 46 ± 23 nM; in assay [12], 817 ± 447 nM.
Turning to `Cc1oc2nc1-c1nc(c(CCCNC(=O)CCOCCOCCOCCOCCNc3cccc4c3C(=O)N(C3CCC(=O)N(C)C3=O)C4=O)o1)-c1nc(co1)C(=O)N[C@@H](CCCCN)c1nc(co1)-c1nc(co1)-c1nc(co1)C(=O)N[C@H]2CCCCN` (some centres unmarked), the Kd is reported as 110 ± 115 nM in assay [13]; 96 ± 28 nM in [1]; more than 1200 nM in assay [3]; more than 1200 nM in assay [7]; 278 ± 258 nM in assay [14]; 155 ± 29 nM in assay [8].
Take `Cc1oc2nc1-c1nc(c(CCCNC(=O)CNc3cccc4c3C(=O)N(C3CCC(=O)N(C)C3=O)C4=O)o1)-c1nc(co1)C(=O)N[C@@H](CCCCN)c1nc(co1)-c1nc(co1)-c1nc(co1)C(=O)N[C@H]2CCCCN` (some centres unmarked): the Kd is listed as 10 ± 5 nM in assay [1]; 46 ± 18 nM in assay [2]; more than 1200 nM in [3]; 289 ± 184 nM in assay [4]; 26 ± 22 nM in assay [5]; 19 ± 14 nM in assay [6]. The dissociation constant Kd is on record as more than 1200 nM in [7]; 33 ± 17 nM in assay [8]; 104 ± 53 nM in [9]; 38 ± 41 nM in assay [10]; 4 ± 3 nM in assay [11]; 39 ± 16 nM in [12].
